Experimental data taken from patent publication EP2769723A1, “Compounds for use in inhibiting HIV capsid assembly” (priority 2013, dated 2014).
Read-outs that look alike come from different tables or passages of the source.

Columns and labels:
wild type NL4.3 HIV-1 = assay: Tissue culture infectivity test, TZM titration of supernatants from infected TZM cells; format: cell-based; details: Human immunodeficiency virus 1, TZM
Experimental: Hits selected in the YFP-screen were further evaluated in the tissue culture experiments with cells infected with the wild type NL4.3 HIV-1. The virus for infection was obtained from co-culture of MT4 cells. The MT4 cells co-culture was synchronized for one week and then used for the infection of fresh MT 4 cells. 48 hrs post-infection was the culture supernatant harvested, cleared by the filtration through […] filter and stored in -80 °C in 1 ml aliquots. Amount of virus was quantified by enzyme-linked immuno sorbent assay (ELISA) with antibodies against HIV-1 CA (3 ng of CA/ml) and blue cell assay (1x10^5 IU/ml), which gives 3 x 10^4 IU/ng of CA.
For compounds testing the TZM cells were seeded on 96-well plate in the density 5 x 10^3 cells per well. The culture media was aspirated approx. 16 hrs later and cells were infected by the wild type NLA.3 HIV-1 by addition of 50J..il of prepared virus stock diluted with 50 µl of complete DMEM. The compounds were added twice to ensure that there are not any preassembled viruses present at the time of their addition. Compounds were first added 8 hrs post-infection and then 24 hrs later. In both cases the old culture media were replaced by 100 µl of fresh complete DMEM prior to the compounds addition. Different compounds concentrations were tested, but the DMSO concentration never exceeded 1 % DMSO. As controls were used cells treated only with 1 % DMSO and cells treated with 0,1 µM Lopinavir (HIV-1 protease inhibitor). Supernatant was harvested 24 hrs after the second compound addition, i.e. 56 hrs post-infection. Harvested supernatants were immediately titrated on the fresh TZM cells in aim to perform the infectivity assay (TZM titration), or inactivated by addition of Triton X-100 to the final concentration 0.025 % for further ELISA analysis.
TZM titration was performed on the cells seeded day before on 96-well plate in the density 5 x 10^3 cells per well. The analysis was performed for each compound concentration at three different dilutions and in duplicates. The culture media was aspired and cells were lysed 48 hrs post-infection by addition of 100 µl of SteadyGlo luciferase substrate (Promega) diluted 1 : 1 by complete DMEM. The luminescence signal was measured on Luminoskan Ascent (Thermo Labsystems) after the transfer of 80 µl of lysate to the flat bottom white polystyrene assay plates (Costar).

TZM cells = assay: in vitro; format: cell-based; details: Table 4; non-cytotoxic when values higher than 80 % of 1 % DMSO treated cells
Experimental: Cytotoxicity of selected hits tested in the assay with NL4.3 infected cells was determined by MTT test. TZM cells were seeded on the previous day on 96-well plate in the density 5 x 10^3 cells per well. The tested compounds were added in different concentrations, but the DMSO concentration never exceeded 1 % DMSO. As controls were used cells treated only with 1 % DMSO (non-toxic concentration) and cells treated with 5 % DMSO (toxic concentration). 20 µl of the CellTiter 96 Aqueous One substrate (Promega) was added to the 100 µl of culture media 48 hrs after the compounds addition and the color development was quantified 4 hrs later by measuring the absorbance at 490 nm on Saphire reader. Compounds were consider non-cytotoxic (at given concentrations) when the measured values were higher than 80 % of the value of 1 % DMSO treated cells.

CA = molecular target: T1, CA (Human immunodeficiency virus type 1 group M subtype B, UniProt P12493); assay: ALPHA screen (AlphaScreen): inhibition of CAI binding to CA; set-up: species or system HIV-1; details: CAI-biotin peptide / CA-GST; compounds screened at 0.5-100 µM; read-out: α screen IC50
T1 construct: a fusion protein of CA with glutathione-S-transferase (CA-GST)
Experimental: The AlphaScreen experiments are performed using Perkin Elmer Enspire plate reader in white 96-well ProxiPlates and PBS supplemented with 0.05% Tween20, 2mM DTT, 2% DMSO. First, Streptavidin-coated Donor beads are used to capture the CAI-biotin peptide. In the other solution, a fusion protein of CA with glutathione-S-transferase (CA-GST) is mixed with GSH Acceptor beads. Both mixtures were incubated and then mixed together. To test the ability of prepared organic compounds to inhibit the CAI binding to CA, they are screened at concentrations between 0.5-100 µM and IC50 values are calculated from the influenced signals.
Upon illumination by laser at 680 nm, Donor beads containing the photosensitizer phthalocyanine convert ambient oxygen to an excited form of singlet oxygen ^1O2. Singlet oxygen can within its half-life of ~ 4 µs diffuse approximately 200 nm in solution. If an Acceptor bead is within that proximity, which is mostly upon CA:CAI interaction, energy is transferred from the singlet oxygen to thioxene derivates within the Acceptor and signal at 520 - 620 nm is emitted.

[1] = read-out: tissue culture IC50 (µM)

SMILES	IC50 (CA) [µM]	further results
CC(O)c1ccc(Nc2nc(-c3ccncc3)nc3ccccc23)cc1 (centres unmarked) [AMR-566]		IC50 (wild type NL4.3 HIV-1; [1]): ~10 µM; toxicity LC50 (µM) (TZM cells): non-toxic
Fc1cc(Nc2ncnc3ccccc23)cc(F)c1F [KP-152]		IC50 (wild type NL4.3 HIV-1; [1]): ~17 µM; toxicity LC50 (µM) (TZM cells): non-toxic
Clc1ccc(Nc2nc(-c3cccnc3)nc3ccccc23)c(Cl)c1Cl [KP-260]		IC50 (wild type NL4.3 HIV-1; [1]): > 10 µM; toxicity LC50 (µM) (TZM cells): non-toxic
CCN(CC)c1nc(-c2cccnc2)nc2ccccc12 [KP-237]		IC50 (wild type NL4.3 HIV-1; [1]): > 10 µM; toxicity LC50 (µM) (TZM cells): non-toxic
CSc1ccc(Nc2nc(-c3ccncc3)nc3ccccc23)cc1 [AMR-570]		IC50 (wild type NL4.3 HIV-1; [1]): ~10 µM; toxicity LC50 (µM) (TZM cells): non-toxic
O[C@H]1CC[C@H](Nc2nc(-c3cccnc3)nc3ccccc23)CC1 [OSR-183]		IC50 (wild type NL4.3 HIV-1; [1]): > 25 µM; toxicity LC50 (µM) (TZM cells): non-toxic
FC(F)(F)c1cccc(Nc2nc(-c3cccnc3)nc3ccccc23)c1 [OSR-198]		IC50 (wild type NL4.3 HIV-1; [1]): > 25 µM; toxicity LC50 (µM) (TZM cells): non-toxic
CCOC(=O)c1ccccc1Nc1nc(-c2ccncc2)nc2ccccc12 [AMR-540]		IC50 (wild type NL4.3 HIV-1; [1]): > 10 µM; toxicity LC50 (µM) (TZM cells): non-toxic
O=[N+]([O-])c1ccc(Nc2ccnc(-c3cccnc3)n2)c(F)c1 [KP-34]		IC50 (wild type NL4.3 HIV-1; [1]): > 25 µM; toxicity LC50 (µM) (TZM cells): non-toxic
CN(C)c1nc(-c2cccnc2)nc2ccc(O)cc12 [OSR-242X]		IC50 (wild type NL4.3 HIV-1; Table 4, cells infected with wild type NL4.3 HIV-1, read-out: tissue culture IC50): 0.5 to 1 µM; toxicity LC50 (µM) (TZM cells): non-toxic
Fc1ccc(Nc2nc(-c3cccnc3)nc3ccccc23)c(F)c1F [OSR-298]		IC50 (wild type NL4.3 HIV-1; [1]): > 10 µM; toxicity LC50 (µM) (TZM cells): non-toxic
O=[N+]([O-])c1cc(Nc2nc(-c3cccnc3)nc3ccccc23)ccc1F [AMR.425]	7	toxicity LC50 (µM) (TZM cells): non toxic
O=[N+]([O-])c1ccc(Nc2cc(-c3cccnc3)nc3ccccc23)c(F)c1 [KP-94]		IC50 (wild type NL4.3 HIV-1; [1]): ~5 µM
Oc1ccc2nc(-c3cccnc3)nc(Nc3cc(F)c(F)c(F)c3)c2c1 [OSR-217]		toxicity LC50 (µM) (TZM cells): non-toxic
FC(F)(F)c1ccc(-c2nc(Nc3ccc4[nH]nnc4c3)c3ccccc3n2)cc1 [AMR.445]	53.2	
c1ccc(-c2nc(Nc3ccc4[nH]nnc4c3)c3ccccc3n2)nc1 [AMR.422]	3.2	
O=[N+]([O-])c1ccc(-c2nc(Nc3ccc4[nH]nnc4c3)c3ccccc3n2)cc1 [AMR.429]	2.4	
CN(C)c1cccc(Nc2nc(-c3ccc(Cl)cc3Cl)nc3ccccc23)c1 [AMR.403]	41.1	
Clc1ccc(-c2nc(Nc3cc(Cl)ccc3Cl)c3ccccc3n2)cc1 [AMR.362]	> 200	
Clc1ccc(-c2nc(NCCCn3ccnc3)c3ccccc3n2)c(Cl)c1 [AMR.392]	> 200	
Cc1ccc(S(=O)(=O)NNc2nc(-c3cccnc3)nc3ccccc23)cc1 [AMR.336]	119	

SMILES	IC50 (CA) [µM]	further results
Clc1ccc(-c2nc(Nc3ccc4[nH]nnc4c3)c3ccccc3n2)cc1 [AMR.3 71]	5	
Cn1nnc2cc(Nc3nc(-c4ccc(Cl)cc4Cl)nc4ccccc34)ccc21 [AMR.401]	41.8	
CCOC(=O)c1ccc(Nc2cc(-c3cccnc3)nc3ccccc23)cc1 [AMR.504]	76	
COc1ccc(Nc2nc(-c3ccncc3)nc3ccccc23)cc1OC [AMR.350]	> 200	
O=[N+]([O-])c1ccc(F)c(Nc2nc(-c3cccnc3)nc3ccccc23)c1 [AMR.335]	6.5	
CN(C)c1ccc(Nc2nc(-c3cccnc3)nc3ccccc23)cc1 [AMR.378]	> 200	
Cn1nnc2cc(Nc3nc(-c4ccncc4)nc4ccccc34)ccc21 [AMR.373]	17.3	
Cc1ccc(S(=O)(=O)NNc2nc(-c3ccccc3Cl)nc3ccccc23)cc1 [AMR.400]	> 200	
Cc1cccc(Nc2nc(-c3cccnc3)nc3ccccc23)c1C [AMR.334]	43.2	
Fc1cc(F)c(Nc2nc(-c3cccnc3)nc3ccccc23)cc1Br [KP-100]		toxicity LC50 (µM) (TZM cells): non-toxic
O=[N+]([O-])c1cc(F)ccc1Nc1nc(-c2ccncc2)nc2ccccc12 [AMR.450]	169	
Cn1nnc2cc(Nc3nc(-c4ccc(Cl)cc4)nc4ccccc34)ccc21 [AMR.374]	6.6	
Fc1ccc(Nc2nc(-c3cccnc3)nc3ccccc23)cc1 [AMR.331]	44.4	
Cn1nnc2cc(Nc3nc(-c4cccnc4)nc4ccccc34)ccc21 [AMR.372]	6.4	
O=[N+]([O-])c1ccc(F)c(Nc2nc(-c3ccc(Cl)cc3Cl)nc3ccccc23)c1 [AMR.391]	> 200	
Cn1nc2ccc(Nc3nc(-c4ccncc4)nc4ccccc34)cc2n1 [AMR.464]	97.4	
CN(C)c1ccc(Nc2nc(-c3ccc(Cl)cc3Cl)nc3ccccc23)cc1 [AMR.402]	26.7	
Clc1ccc(-c2nc(Nc3ccc4[nH]nnc4c3)c3ccccc3n2)c(Cl)c1 [AMR.393]	2	
CNc1ccc([N+](=O)[O-])cc1Nc1nc(-c2ccncc2)nc2ccccc12 [AMR.466]	4.7	
Cn1nnc2cc(Nc3nc(-c4ccc(C(F)(F)F)cc4)nc4ccccc34)ccc21 [AMR.446]	28.2	
Cc1cccc(Nc2nc(-c3ccncc3)nc3ccccc23)c1C [AMR.354]	165	

SMILES	IC50 (CA) [µM]	further results
Fc1ccc(Nc2nc(-c3ccc(Cl)cc3)nc3ccccc23)cc1 [AMR.364]	> 200	
Oc1ccc2nc(-c3cccnc3)nc(O)c2c1 [OSR-243]		toxicity LC50 (µM) (TZM cells): non-toxic
CN(C)c1ccc(Nc2nc(-c3ccc(Cl)cc3)nc3ccccc23)cc1 [AMR.368]	33.7	
c1ccc2c(Nc3ccc4[nH]nnc4c3)ncnc2c1 [AMR.476]	137	
O=[N+]([O-])c1cc(Nc2nc(-c3ccncc3)nc3ccccc23)ccc1O [AMR.458]	5.8	
Cn1nnc2cc(Nc3cc(-c4cccnc4)nc4ccccc34)ccc21 [AMR.505]	59.8	
CN(C)c1cccc(-c2nc(Nc3cc([N+](=O)[O-])ccc3F)c3ccccc3n2)c1 [AMR.508]	> 200	
Cc1ccc(S(=O)(=O)NNc2nc(-c3ccc(Cl)cc3)nc3ccccc23)cc1 [AMR.370]	> 200	
CN(c1ccc2c(c1)nnn2C)c1nc(-c2ccncc2)nc2ccccc12 [AMR.471]	> 200	
CN(C)c1cccc(Nc2nc(-c3ccc(Cl)cc3)nc3ccccc23)c1 [AMR.380]	157	
c1ccc2c(NCCCn3ccnc3)nc(-c3ccncc3)nc2c1 [AMR.347]	> 200	
O=C(O)c1ccc(Nc2nc(-c3ccncc3)nc3ccccc23)c(O)c1 [AMR.462]	15.2	
CN(C)c1ccc(-c2nc(Nc3ccc4c(c3)nnn4C)c3ccccc3n2)cc1 [AMR.512]	30.8	
Fc1ccc(Cl)cc1Nc1nc(-c2cccnc2)nc2ccccc12 [AMR.427]	16.5	
O=[N+]([O-])c1ccc(-c2nc(Nc3cc([N+](=O)[O-])ccc3F)c3ccccc3n2)cc1 [AMR.428]	115	
c1cncc(-c2nc(NCCCn3ccnc3)c3ccccc3n2)c1 [AMR.322]	> 200	
CN(C)c1cccc(Nc2nc(-c3ccncc3)nc3ccccc23)c1 [AMR.381]	130	
O=[N+]([O-])c1cc(Nc2ccnc(-c3cccnc3)n2)ccc1F [KP-43]		toxicity LC50 (µM) (TZM cells): non-toxic
COc1ccc(Nc2nc(-c3ccc(Cl)cc3Cl)nc3ccccc23)cc1OC [AMR.395]	121	
O=[N+]([O-])c1ccc(F)c(Nc2nc(-c3ccncc3)nc3ccccc23)c1 [AMR.348]	7.2	
